Laboratory results from patent publication US11331319B2, “Combination treatment for neuropsychiatric disorders” (UNIVERSITY OF MASSACHUSETTS, priority 2017, dated 2022).
Blank lines part the entries; values can stand above or below the compound they belong to.

Key:
[1] = system: N-methyl-D-aspartate receptor (NMDAR); conditions: cited from earlier work; for Finding: schizophrenia treatment; for Limitation: efficacy / Limitation: toxicity / therapeutic window: Table 3
[2] = system: young adults with uncomplicated type 1 diabetes; conditions: 7000 mg per day, one week; cited from earlier work
[3] = over-the-counter nutrition supplement; cited from earlier work
[4] = Body mass index (minocycline trial); type: in vivo, human; conditions: minocycline 200 mg per day, N = 27; week 16 value minus baseline value; mean
Source text: (§1) After screening, each eligible subject underwent baseline assessments including the Scale for the Assessment of Negative Symptoms (SANS), the Positive and Negative Syndrome Scale (PANSS), and blood draw for lab tests. Andreasen N C., “Negative symptoms in schizophrenia: Definition and reliability” Arch. Gen. Psychiatry 39:784-788 (1982); and Kay et al., “The positive and negative syndrome scale (PANSS) for schizophrenia” Schizophr. Bull. 13:261-276 (1987). Subjects continued to take risperidone at the same dose throughout the study, and were randomized in a 1:1 ratio to receive either minocycline (200 mg per day) or placebo for 16 weeks. At week 16, baseline assessments were repeated.
(§2) Anthropometric measures included weight, height and body mass index (BMI). Blood samples were obtained 11 h (±1 h) after the completion of the last meal the night before. Subjects were allowed to drink water during the fasting period. Laboratory assays for plasma levels of TNFα, and IL-1β were performed using the enzyme-linked immunosorbent assay (ELISA) (Bender Med Systems GmbH Campus Vienna Biocenter 2 A-1030 Vienna, Austria, Europe). Plasma levels of NO metabolites (nitrites and nitrates) were measured using the Griess method (Cortas & Wakid 1990) (Nanjing Jiancheng Bioengineering Institute, China).
(§3) Statistical analysis was performed using SPSS (version 24.0, IBM Corp, Armonk, N.Y.). […]

[5] = system: patients with schizophrenia; experiment: 16-week adjunctive minocycline clinical trial: SANS and PANSS; type: in vivo, human; conditions: minocycline 200 mg per day added to risperidone, N = 27, week 16 value minus baseline value, mean
Source text: Adult patients with schizophrenia were recruited from the 1st Affiliated Hospital of Kunming Medical University, and the Mental Health Center of Yunnan Province, China, between June 2010 and November 2011. The diagnosis of schizophrenia was made by trained clinical interviewers using the structured clinical interview for DSM-IV diagnosis (SCID). First et al., In: Structured Clinical interview for DSM-IV Axis I Disorders-Clinician Version (SCID-CV). Washington, D.C.: American Psychiatry Press. (1996). Other inclusion criteria included: (1) age 18 to 40 years old; (2) disease duration ≤5 years; (3) on stable dose of risperidone for at least 4 weeks prior to screening; (4) a stable living arrangement. Exclusion criteria were: (1) being allergic to minocycline or tetracycline; (2) a psychiatric diagnosis other than schizophrenia (determined by SCID); (3) serious, unstable medical conditions; (4) diagnosis of diabetes mellitus; (4) female patients who were planning to become pregnant, or were pregnant or lactating were also excluded from the study. The study was approved by the ethics committee of the 1st Affiliated Hospital of Kunming Medical University.
as §1
Statistical analysis was performed using SPSS (version 24.0, IBM Corp, Armonk, N.Y.). Descriptive statistics were performed to summarize demographic and clinical characteristics of the study sample. Group comparisons were performed using the independent t test for continuous variables, and the Fisher exact test or Chi-square test for categorical variables. Analysis of covariance (ANCOVA) was used to compare change scores from baseline to week 16 between the two treatment groups controlling for baseline scores and potential confounding variables. For all analyses, a p value less than 0.05 (2-tailed) was used for statistical significance.

[6] = system: NO metabolites (nitrites and nitrates); experiment: Plasma levels of NO metabolites, Griess method (minocycline trial); type: in vivo, human; conditions: minocycline 200 mg per day, N = 27, fasting plasma, week 16 value minus baseline value, mean
Source text: as §1, §2, §3

[7] = system: IL-1β; experiment: Plasma IL-1β by ELISA (minocycline trial); type: in vivo, human; conditions: minocycline 200 mg per day, N = 27; fasting plasma; week 16 value minus baseline value; mean; listed as Minocycline
Source text: as §1, §2, §3

[8] = system: TNFα; experiment: Plasma TNFα by ELISA (minocycline trial); type: in vivo, human; conditions: minocycline 200 mg per day, N = 27; fasting plasma; week 16 value minus baseline value; mean; listed as Minocycline
Source text: as §1, §2, §3

[9] = cited from earlier work
[10] = underlying neurologic disorders, co-administration of levodopa and sapropterin; cited from earlier work

Compound: C[C@@H](N)C(=O)O [D-Alanine]
Finding [1]: Improvement in overall

Compound: N[C@@H]1CONC1=O [D-Cycloserine]
Limitation: efficacy [1]: Decrease in efficacy over time
Limitation: toxicity / therapeutic window [1]: Very narrow therapeutic window
Finding [1]: Inconsistent finding; improvement

Compound: N[C@H](CO)C(=O)O [D-Serine]
Limitation: toxicity / therapeutic window [1]: Nephrotoxicity
Finding [1]: Improvement in overall

Compound: NCC(=O)O [Glycine]
Limitation: efficacy [1]: High doses required to reach therapeutic effects
Finding [1]: Improvement in overall

Compound: N=C(N)NCCC[C@H](N)C(=O)O [L-arginine]
Effect of supplementation [2]: improved oxidative stress status, increased blood flow and exercise responses
Safety and tolerability [3]: considered safe and well tolerated in general

Compound: CCCCCNCC(N)=O [Milacemide]
Finding [1]: No significant clinical benefit

Compound: CNCC(=O)O [Sarcosine]
Finding [1]: Improvment in overall

BMI, week 16 change [4]: 1.98 kg/m^2
Compound: CN(C)c1ccc(O)c2c1C[C@H]1C[C@H]3[C@H](N(C)C)C(O)=C(C(N)=O)C(=O)[C@@]3(O)C(O)=C1C2=O [minocycline]
PANSS general psychopathology score, week 16 change [5]: −14.5
PANSS negative symptom score, week 16 change [5]: −10.8±5.9
PANSS positive symptom score, week 16 change [5]: −8.5
PANSS total score, week 16 change [5]: −32.9±17.1
SANS total score, week 16 change [5]: −31.2±25.5
PANSS negative symptom score, week 16 change ([5]; listed as Minocycline): −10.8
PANSS total score, week 16 change ([5]; listed as Minocycline): −32.9
SANS total score, week 16 change ([5]; listed as Minocycline): −31.2
Nitric oxide (plasma levels of NO metabolites), week 16 change [6]: -8.19 ± 18.09 µmol/L
Nitric oxide (plasma levels of NO metabolites), week 16 change ([6]; listed as Minocycline): -8.19 µmol/L
IL-1β plasma level, week 16 change [7]: -0.99 pg/mL
TNF-α plasma level, week 16 change [8]: -0.97 pg/mL
Tolerability ([9]; in humans): well tolerated in humans
Oral bioavailability ([9]; in vivo, po): high oral bioavailability

Compound: C[C@H](O)[C@H](O)[C@H]1CNc2nc(N)[nH]c(=O)c2N1 [sapropterin]
Patients who experienced confusions, exacerbation of convulsions, over-stimulation, or irritability [10]: 3 patients
